Values of other authors, collected in US20100028432A1, “FORMULATIONS OF ACTIVE PRINCIPLES INCORPORATED IN SLNS SUITABLE FOR TRANSDERMAL ADMINISTRATION” (NANOVECTOR S.R.L., priority 2006, published 2010).

Columns and labels:
[1] = in vivo
[2] = transdermal systems of U.S. Pat. No. 5,508,039 containing melatonin powder and an absorption enhancer; in vitro tests
[3] = intravenous bolus injection
[4] = administered orally

Row | Compound | elimination time [1] | half-life of melatonin [2] [h] | half-life [3] | bioavailability [4] | plasma clearance ([4]; marked first-pass hepatic metabolism)
1 | CN1CCc2cccc3c2[C@H]1Cc1ccc(O)c(O)c1-3 [Apomorphine] | about 33 minutes | – | – | – | –
2 | COc1ccc2[nH]cc(CCNC(C)=O)c2c1 [melatonin, N-acetyl-5-methoxytryptamine] | – | ≤ 2 | around 40 minutes | low and variable bioavailability | rapid plasma clearance
